Test results as given in article PMC9021288 (Nature Communications, 2022).
Values joined by “and” are separate entries in the source; they are usually repeats but may differ in a detail not shown here. Identical values can stand only once. Like-named read-outs stand apart in the source and are kept apart here.

Legend:
[1] = Solubility in PBS, FaSSIF, FeSSIF; assay type: physicochemical
AcAS-cKD P. falciparum = test: Drug sensitivity of AcAS conditional knockdown parasites; assay type: cell-based, Plasmodium falciparum; conditions: […] vs 500 nM aTc
Description: Replication assays were performed using a SYBR Green method as described previously. Briefly, asynchronous parasites were diluted to 0.83% parasitemia, 3% hematocrit in 30 µl medium, and added to 30 µl of diluted compounds in medium (0.1% DMSO final concentration) in black 384-wells plates. After a 72-h incubation, 30 µl of SYBR Green diluted in lysis buffer was added according to the manufacturer’s protocol (Life Technologies). Fluorescence intensity was measured on a BioTek Synergy 2 Plate Reader after 1-h incubation and was normalized to a DMSO control (100% growth) and DHA- or epoxomicin-treatment (no growth). […] Parasite survival was assessed by flow cytometry on an Accuri C6 (BD Biosciences) with BD C6 Plus software using SYBR Green and MitoTracker Deep Red FM (Life Technologies) as nuclear stain and vital dye, respectively, and data were analyzed using FlowJo (10.5.0). […] Luminescence was measured after 72 h using the Renilla-Glo(R) Luciferase Assay System (Promega E2750) and the GlomAX® Discover Multimode Microplate Reader (Promega). The luminescence values were normalized to DMSO vehicle (100% growth) and 200 nM chloroquine-treated (no growth) samples as controls.

[2] = target: T1, panel of human receptors and channels (Homo sapiens, UniProt P06401); assay type: binding; conditions: PR (h) (agonist radioligand); Rep1, Rep2, Mean
T1 construct: purchased Eurofins CEREP
T1 sequence (P06401 whole entry): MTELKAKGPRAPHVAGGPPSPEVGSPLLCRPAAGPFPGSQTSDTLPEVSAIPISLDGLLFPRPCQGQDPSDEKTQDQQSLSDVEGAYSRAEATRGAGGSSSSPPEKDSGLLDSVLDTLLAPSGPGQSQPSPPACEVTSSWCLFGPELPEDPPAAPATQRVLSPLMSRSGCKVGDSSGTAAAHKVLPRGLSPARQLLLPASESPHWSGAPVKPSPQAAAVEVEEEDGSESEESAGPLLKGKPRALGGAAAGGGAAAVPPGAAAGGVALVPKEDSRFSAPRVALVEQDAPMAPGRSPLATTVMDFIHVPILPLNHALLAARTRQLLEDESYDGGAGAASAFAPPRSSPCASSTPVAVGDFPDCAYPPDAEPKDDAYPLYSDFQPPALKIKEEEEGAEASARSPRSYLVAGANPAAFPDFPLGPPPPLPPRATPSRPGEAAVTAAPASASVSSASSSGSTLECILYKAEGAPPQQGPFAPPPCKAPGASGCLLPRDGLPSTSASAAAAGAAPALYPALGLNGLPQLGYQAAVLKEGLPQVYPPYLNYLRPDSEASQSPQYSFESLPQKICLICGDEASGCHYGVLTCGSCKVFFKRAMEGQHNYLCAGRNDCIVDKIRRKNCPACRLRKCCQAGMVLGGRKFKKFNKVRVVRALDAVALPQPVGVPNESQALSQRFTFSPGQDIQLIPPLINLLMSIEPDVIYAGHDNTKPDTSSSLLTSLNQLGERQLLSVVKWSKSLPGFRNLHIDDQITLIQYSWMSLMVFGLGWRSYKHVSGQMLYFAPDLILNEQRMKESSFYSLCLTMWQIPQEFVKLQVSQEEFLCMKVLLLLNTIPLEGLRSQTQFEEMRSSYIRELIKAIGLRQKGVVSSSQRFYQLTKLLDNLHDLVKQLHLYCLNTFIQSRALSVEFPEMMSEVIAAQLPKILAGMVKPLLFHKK

[3] = target: T2, panel of human receptors and channels (Homo sapiens, UniProt P0DMS8); assay type: binding; conditions: A3 (h) (agonist radioligand); Rep1, Rep2, Mean
T2 construct: purchased Eurofins CEREP
T2 sequence (P0DMS8 whole entry): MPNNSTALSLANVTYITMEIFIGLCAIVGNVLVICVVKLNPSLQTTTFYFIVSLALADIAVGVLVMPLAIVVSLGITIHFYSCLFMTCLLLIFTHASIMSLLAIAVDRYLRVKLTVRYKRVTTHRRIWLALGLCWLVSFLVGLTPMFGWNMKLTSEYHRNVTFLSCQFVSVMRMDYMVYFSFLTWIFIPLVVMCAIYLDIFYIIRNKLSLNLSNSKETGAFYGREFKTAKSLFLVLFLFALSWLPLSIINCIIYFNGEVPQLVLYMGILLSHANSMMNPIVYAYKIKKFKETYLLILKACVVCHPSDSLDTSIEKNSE

[4] = target: T3, panel of human receptors and channels (Homo sapiens, UniProt P21554); assay type: binding; conditions: CB1 (h) (agonist radioligand); Rep1, Rep2, Mean
T3 construct: purchased Eurofins CEREP

[5] = target: T4, panel of human receptors and channels (Homo sapiens, UniProt P21917); assay type: binding; conditions: D4.4 (h) (antagonist radioligand); Rep1, Rep2, Mean
T4 construct: purchased Eurofins CEREP
T4 sequence (P21917 whole entry): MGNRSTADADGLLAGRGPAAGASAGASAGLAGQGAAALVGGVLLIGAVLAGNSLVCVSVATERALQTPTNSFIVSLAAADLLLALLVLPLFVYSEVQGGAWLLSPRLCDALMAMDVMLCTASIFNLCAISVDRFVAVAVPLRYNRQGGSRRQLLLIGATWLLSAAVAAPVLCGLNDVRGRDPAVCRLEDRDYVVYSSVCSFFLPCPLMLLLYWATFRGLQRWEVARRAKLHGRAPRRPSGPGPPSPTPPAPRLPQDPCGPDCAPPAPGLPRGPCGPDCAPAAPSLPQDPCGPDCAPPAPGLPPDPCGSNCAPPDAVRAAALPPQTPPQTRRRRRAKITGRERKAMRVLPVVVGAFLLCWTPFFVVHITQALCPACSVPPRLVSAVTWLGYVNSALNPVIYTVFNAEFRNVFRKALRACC

[6] = target: T5, panel of human receptors and channels (Homo sapiens, UniProt P24530); assay type: binding; conditions: ETB (h) (agonist radioligand); Rep1, Rep2, Mean
T5 construct: purchased Eurofins CEREP

[7] = target: T6, panel of human receptors and channels (Homo sapiens, UniProt P25101); assay type: binding; conditions: ETA (h) (agonist radioligand); Rep1, Rep2, Mean
T6 construct: purchased Eurofins CEREP
T6 sequence (P25101 21-427): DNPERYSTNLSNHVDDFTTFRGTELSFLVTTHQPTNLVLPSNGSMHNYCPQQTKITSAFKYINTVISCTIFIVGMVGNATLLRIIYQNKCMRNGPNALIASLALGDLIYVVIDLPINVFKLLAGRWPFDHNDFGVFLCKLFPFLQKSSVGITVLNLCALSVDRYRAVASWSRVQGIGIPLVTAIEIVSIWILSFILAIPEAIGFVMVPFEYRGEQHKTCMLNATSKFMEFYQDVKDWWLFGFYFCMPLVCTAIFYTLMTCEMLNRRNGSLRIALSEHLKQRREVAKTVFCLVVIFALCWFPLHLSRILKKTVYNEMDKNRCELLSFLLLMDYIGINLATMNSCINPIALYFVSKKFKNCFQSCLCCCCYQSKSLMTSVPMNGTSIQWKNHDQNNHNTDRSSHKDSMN

[8] = target: T7, panel of human receptors and channels (Homo sapiens, UniProt P30411); assay type: binding; conditions: B2 (h) (agonist radioligand); Rep1, Rep2, Mean
T7 construct: purchased Eurofins CEREP
T7 sequence (P30411 whole entry): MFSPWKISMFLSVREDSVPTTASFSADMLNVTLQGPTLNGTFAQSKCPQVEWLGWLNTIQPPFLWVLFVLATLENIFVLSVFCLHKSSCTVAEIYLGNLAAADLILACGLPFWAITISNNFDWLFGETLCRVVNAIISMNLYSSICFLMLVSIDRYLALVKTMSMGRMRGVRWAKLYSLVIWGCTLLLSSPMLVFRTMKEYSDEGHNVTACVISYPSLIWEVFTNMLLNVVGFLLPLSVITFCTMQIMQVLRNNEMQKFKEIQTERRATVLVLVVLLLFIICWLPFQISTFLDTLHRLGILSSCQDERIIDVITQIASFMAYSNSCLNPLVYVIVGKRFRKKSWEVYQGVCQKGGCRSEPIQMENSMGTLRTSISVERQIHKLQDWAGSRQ

[9] = target: T8, panel of human receptors and channels (Homo sapiens, UniProt P30518); assay type: binding; conditions: V2 (h) (agonist radioligand); Rep1, Rep2, Mean
T8 construct: purchased Eurofins CEREP
T8 sequence (P30518 whole entry): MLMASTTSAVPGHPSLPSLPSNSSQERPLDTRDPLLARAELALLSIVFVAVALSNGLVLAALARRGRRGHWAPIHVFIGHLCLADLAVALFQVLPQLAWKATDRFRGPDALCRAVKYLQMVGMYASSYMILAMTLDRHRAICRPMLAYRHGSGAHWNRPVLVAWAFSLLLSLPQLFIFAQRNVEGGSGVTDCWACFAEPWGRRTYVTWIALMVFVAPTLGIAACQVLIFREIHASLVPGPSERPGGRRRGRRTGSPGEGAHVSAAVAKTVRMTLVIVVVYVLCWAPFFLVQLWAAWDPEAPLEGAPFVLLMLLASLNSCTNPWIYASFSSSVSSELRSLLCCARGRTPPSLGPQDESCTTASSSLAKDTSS

[10] = target: T9, panel of human receptors and channels (Homo sapiens, UniProt P30542); assay type: binding; conditions: A1 (h) (antagonist radioligand); Rep1, Rep2, Mean
T9 construct: purchased Eurofins CEREP
T9 sequence (P30542 whole entry): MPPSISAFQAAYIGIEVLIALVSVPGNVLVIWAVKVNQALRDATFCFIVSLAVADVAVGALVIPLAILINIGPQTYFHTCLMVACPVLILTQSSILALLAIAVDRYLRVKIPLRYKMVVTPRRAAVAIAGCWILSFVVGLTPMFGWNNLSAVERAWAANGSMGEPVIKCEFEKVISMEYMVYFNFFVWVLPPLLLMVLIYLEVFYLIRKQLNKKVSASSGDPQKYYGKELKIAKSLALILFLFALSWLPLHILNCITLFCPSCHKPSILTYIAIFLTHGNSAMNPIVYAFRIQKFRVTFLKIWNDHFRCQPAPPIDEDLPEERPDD

[11] = target: T10, panel of human receptors and channels (Homo sapiens, UniProt P32238); assay type: binding; conditions: CCK1 (CCKA) (h) (agonist radioligand); Rep1, Rep2, Mean
T10 construct: purchased Eurofins CEREP
T10 sequence (P32238 whole entry): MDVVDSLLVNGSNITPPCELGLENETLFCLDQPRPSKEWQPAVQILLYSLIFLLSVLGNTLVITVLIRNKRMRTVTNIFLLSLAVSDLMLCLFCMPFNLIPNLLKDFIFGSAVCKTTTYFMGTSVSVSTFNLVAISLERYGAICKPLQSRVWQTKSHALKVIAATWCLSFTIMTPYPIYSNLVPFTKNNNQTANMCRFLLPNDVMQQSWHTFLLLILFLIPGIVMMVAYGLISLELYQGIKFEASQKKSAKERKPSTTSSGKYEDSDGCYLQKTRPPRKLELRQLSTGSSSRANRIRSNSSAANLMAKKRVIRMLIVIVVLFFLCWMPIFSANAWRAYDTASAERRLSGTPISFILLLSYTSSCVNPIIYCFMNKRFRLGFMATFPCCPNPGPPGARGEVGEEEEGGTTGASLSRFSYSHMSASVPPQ

[12] = target: T11, panel of human receptors and channels (Homo sapiens, UniProt P32239); assay type: binding; conditions: CCK2 (CCKB) (h) (agonist radioligand); Rep1, Rep2, Mean
T11 construct: purchased Eurofins CEREP
T11 sequence (P32239 whole entry): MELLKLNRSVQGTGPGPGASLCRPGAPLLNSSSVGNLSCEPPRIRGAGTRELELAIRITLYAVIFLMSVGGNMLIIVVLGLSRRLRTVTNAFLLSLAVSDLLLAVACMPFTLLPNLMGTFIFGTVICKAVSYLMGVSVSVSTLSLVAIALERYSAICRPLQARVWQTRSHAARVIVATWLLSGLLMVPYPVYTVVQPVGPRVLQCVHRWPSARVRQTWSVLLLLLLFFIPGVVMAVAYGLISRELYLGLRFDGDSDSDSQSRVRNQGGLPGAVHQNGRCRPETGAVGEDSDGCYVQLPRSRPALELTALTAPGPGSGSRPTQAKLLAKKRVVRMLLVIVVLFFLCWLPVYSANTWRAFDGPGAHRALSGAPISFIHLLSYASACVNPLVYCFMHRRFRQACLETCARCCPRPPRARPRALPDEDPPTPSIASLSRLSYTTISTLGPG

[13] = target: T12, panel of human receptors and channels (Homo sapiens, UniProt P34998); assay type: binding; conditions: CRF1 (h) (agonist radioligand); Rep1, Rep2, Mean
T12 construct: purchased Eurofins CEREP

[14] = target: T13, panel of human receptors and channels (Homo sapiens, UniProt P35367); assay type: binding; conditions: H1 (h) (antagonist radioligand); Rep1, Rep2, Mean
T13 construct: purchased Eurofins CEREP

[15] = target: T14, panel of human receptors and channels (Homo sapiens, UniProt P43681); assay type: binding; conditions: N neuronal α4β2 (h) (agonist radioligand); Rep1, Rep2, Mean
T14 construct: purchased Eurofins CEREP

[16] = target: T15, panel of human receptors and channels (Homo sapiens, UniProt P50052); assay type: binding; conditions: AT2 (h) (agonist radioligand); Rep1, Rep2, Mean
T15 construct: purchased Eurofins CEREP

[17] = target: T16, panel of human receptors and channels (Homo sapiens, UniProt Q01959); assay type: binding; conditions: dopamine transporter (h) (antagonist radioligand); Rep1, Rep2, Mean
T16 construct: purchased Eurofins CEREP
T16 sequence (Q01959 whole entry): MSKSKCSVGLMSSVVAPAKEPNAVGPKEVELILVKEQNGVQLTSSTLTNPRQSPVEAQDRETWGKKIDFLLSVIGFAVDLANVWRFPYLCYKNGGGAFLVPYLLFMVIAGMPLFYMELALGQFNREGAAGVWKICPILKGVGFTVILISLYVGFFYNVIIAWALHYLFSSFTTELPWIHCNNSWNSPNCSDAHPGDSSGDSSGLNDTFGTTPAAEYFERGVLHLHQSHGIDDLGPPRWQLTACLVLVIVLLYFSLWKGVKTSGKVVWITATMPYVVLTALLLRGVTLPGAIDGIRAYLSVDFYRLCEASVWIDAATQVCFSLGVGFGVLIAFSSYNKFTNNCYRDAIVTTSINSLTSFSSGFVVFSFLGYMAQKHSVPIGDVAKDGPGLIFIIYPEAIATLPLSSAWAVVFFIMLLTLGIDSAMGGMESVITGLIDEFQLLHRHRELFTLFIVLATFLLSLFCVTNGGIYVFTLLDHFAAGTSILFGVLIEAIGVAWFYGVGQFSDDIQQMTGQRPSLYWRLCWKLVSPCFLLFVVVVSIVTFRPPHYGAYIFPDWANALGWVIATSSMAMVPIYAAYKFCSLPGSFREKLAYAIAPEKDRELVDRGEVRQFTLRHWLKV

[18] = test system: panel of human receptors and channels; assay type: binding; conditions: for % Inhibition of Control Specific Binding: Rep1, Rep2, Mean

## C[C@@H](CNC(=O)[C@H](O)C(C)(C)CO)NC(=O)c1cc(F)c(F)cc1F [MMV693183]
[1]; FaSSIF
  solubility: 25.5 µM
[1]; FeSSIF
  solubility: 25.0 µM
[1]; PBS
  solubility: 7100 µg/mL
[1]; fasted-state simulated intestinal fluid
  solubility: 9200 µg/mL
[1]; fed-state simulated intestinal fluid
  solubility: 9100 µg/mL
AcAS-cKD P. falciparum
  IC50 decrease upon knockdown (low aTc): 5 fold
[2]
  % Inhibition of Control Specific Binding: -7.9% and -12.3% and -10.1%
[3]
  % Inhibition of Control Specific Binding: -6.2% and -3.3% and -4.75%
[4]
  % Inhibition of Control Specific Binding: -14.2%
[5]
  % Inhibition of Control Specific Binding: -1.9% and 2.9% and 0.5%
[6]
  % Inhibition of Control Specific Binding: -8.6%
[7]
  % Inhibition of Control Specific Binding: -8.1% and -6.5% and -7.3%
[8]
  % Inhibition of Control Specific Binding: 0.2% and 8.4% and 4.3%
[9]
  % Inhibition of Control Specific Binding: 3.4% and 12.9% and 8.15%
[10]
  % Inhibition of Control Specific Binding: -9.6% and -3.5% and -6.55%
[11]
  % Inhibition of Control Specific Binding: -13.7% and -11% and -12.35%
[12]
  % Inhibition of Control Specific Binding: 10.5% and 16.3% and 13.4%
[13]
  % Inhibition of Control Specific Binding: 16.8% and 10.5% and 13.65%
[14]
  % Inhibition of Control Specific Binding: 6.2% and 8% and 7.1%
[15]
  % Inhibition of Control Specific Binding: -14.6% and -4.9% and -9.75%
[16]
  % Inhibition of Control Specific Binding: 7.4%
[17]
  % Inhibition of Control Specific Binding: -10.1% and -0.3% and -5.2%
[18]; 10 µM
  induction, GABA (non-selective): 25.2%
  inhibition in cross-reactivity panel of human receptors, enzymes, or channels: < 50%
  inhibition/induction, all other binding assays: less than 25%
[18]; AMPA (agonist radioligand)
  % Inhibition of Control Specific Binding: -3.3% and 6.3% and 1.5%
[18]; BZD (central) (agonist radioligand)
  % Inhibition of Control Specific Binding: -6% and -2.2% and -4.1%
[18]; Ca2+ channel (L, dihydropyridine site) (antagonist radioligand)
  % Inhibition of Control Specific Binding: -8.8% and -2.1% and -5.45%
[18]; Ca2+ channel (L, diltiazem site) (benzothiazepines) (antagonist radioligand)
  % Inhibition of Control Specific Binding: -0.7% and -8.5% and -4.6%
[18]; Ca2+ channel (L, verapamil site) (phenylalkylamine) (antagonist radioligand)
  % Inhibition of Control Specific Binding: -8.2% and -3.1% and -5.65%
[18]; Cl- channel (GABA-gated) (antagonist radioligand)
  % Inhibition of Control Specific Binding: 3.7% and 11.5% and 7.6%
[18]; D2S (h) (antagonist radioligand)
  % Inhibition of Control Specific Binding: 8.5% and 10.6% and 9.55%
[18]; GABA transporter (antagonist radioligand)
  % Inhibition of Control Specific Binding: -5.4% and -8% and -6.7%
[18]; IP (PGI2) (h) (agonist radioligand)
  % Inhibition of Control Specific Binding: 1.7% and -1% and 0.35%
[18]; KV channel (antagonist radioligand)
  % Inhibition of Control Specific Binding: 1.3% and -0.6% and 0.35%
[18]; MT1 (ML1A) (h) (agonist radioligand)
  % Inhibition of Control Specific Binding: -0.2% and 6.2% and 3%
[18]; NMDA (antagonist radioligand)
  % Inhibition of Control Specific Binding: -6% and -8.3% and -7.15%
[18]; Na+ channel (site 2) (antagonist radioligand)
  % Inhibition of Control Specific Binding: 17.2% and 13.3% and 15.25%
[18]; P2Y (agonist radioligand)
  % Inhibition of Control Specific Binding: -7.4% and -3% and -5.2%
[18]; SKCa channel (antagonist radioligand)
  % Inhibition of Control Specific Binding: -1.2% and 2.1% and 0.45%
[18]; Y (non-selective) (agonist radioligand)
  % Inhibition of Control Specific Binding: -24.9% and -15.9% and -20.4%
[18]; kainate (agonist radioligand)
  % Inhibition of Control Specific Binding: -0.8% and 7.7% and 3.45%
[18]; opioid (non-selective) (antagonist radioligand)
  % Inhibition of Control Specific Binding: 4.1% and 0.3% and 2.2%
[18]; α1 (non-selective) (antagonist radioligand)
  % Inhibition of Control Specific Binding: 2.6% and 11.7% and 7.15%
[18]; α2 (non-selective) (antagonist radioligand)
  % Inhibition of Control Specific Binding: -11.5% and -12.5% and -12%
